Results: patent US20230023092A1, “TREATMENT OF DEPRESSION AND OTHER VARIOUS DISORDERS WITH PSILOCYBIN” (COMPASS […], priority 2019, published 2023)

Tested on: healthy subjects
Test: Phase 1 study: adverse events (TEAEs, MedDRA coded)
Type: in vivo, human
Procedure: A Phase 1 randomized, double-blind, placebo-controlled study to evaluate the effect of psilocybin on cognitive and emotional processing as compared to placebo in healthy volunteers was conducted. The study investigated the short-term (Day 7) and long-term (Day 28) effects of moderate (10 mg) and high doses (25 mg) of psilocybin on key domains of cognition, such as episodic memory, attention, working and spatial memory, social cognition and elements of executive function, including cognitive flexibility.
Each subject was assigned 1 treatment bottle containing 5 capsules packaged in a double-blind fashion, depending on the randomized treatment arm, the bottle contained one of the following: • a. Psilocybin 10 mg: 2×5-mg oral psilocybin capsules plus 3×placebo capsules • b. Psilocybin 25 mg: 5×5-mg oral psilocybin capsules • c. Placebo: 5×placebo capsules
Each 5-mg oral psilocybin capsules comprised 5 mg crystalline psilocybin in the form or Polymorph A, 12.5 mg of SMCC 50, 79.5 mg of SMCC 90, 1 mg sodium starch glycolate, 1 mg colloidal silicon dioxide, and 1 mg sodium stearyl fumarate
Adverse events: Throughout the course of the study, all AEs were monitored and recorded. Each AE was classified according to the following criteria: • i. […] Moderate: The AE produces some impairment of functioning, but is not hazardous to the subject's health. • iii. Severe: The AE produces significant impairment of functioning or incapacitation and is a definite hazard to the subject's health.
Visit 3 (V3): Drug Administration (Day 0): The subject was asked to eat a light breakfast at least two hours prior to coming to the clinic for study drug administration. On Day 0 (V3), the subject underwent the SSTS, had vital signs obtained, medications reviewed, AEs recorded and eligibility reviewed prior to being randomized to study drug. The study drug was administered to up to six subjects simultaneously in individual beds separated by a curtain. The subject was invited to put on eyeshades and headphones, lie down and listen to calming music for the rest of the session (six hours). The subject was supported 1:1 with a chaperone and supervised by the study psychiatrist and lead therapist.
During administration of psilocybin, each subject received one-on-one support from a trained assisting therapist and each dosing session was supervised by a study psychiatrist and a lead therapist. The study drug was administered simultaneously to up to six participants as a single 5-capsule oral dose (10 mg psilocybin: 2×5-mg psilocybin capsules plus 3×placebo capsules; 25 mg psilocybin: 5×5-mg psilocybin capsules; placebo: 5×placebo capsules). Twenty-five dosing sessions were completed, with up to six participants dosed simultaneously per session. Each session lasted approximately 6 to 8 hours with subjects encouraged to relax and engage in introspection for the duration. After the acute effects of the study drug had subsided, subjects were discharged.

In the case of `CN(C)CCc1c[nH]c2cccc(OP(=O)(O)O)c12` [Psilocybin, psilocybin], the “Serious adverse events or adverse events that led to withdrawal” value (10 mg and 25 mg oral, 12-week study) is reported as “no serious adverse events or adverse events that led to withdrawal”, the “AEs deemed potentially related to study treatment, % of AEs of the arm” value (10 mg oral) is reported as 92.6% and the “Affect lability, Events” value (10 mg oral) is reported as 5. For the same molecule, the “Affect lability, N (%)” value (10 mg oral) was 5 (16.7), the “Affect lability, worst severity Mild, Events” value (10 mg oral) was 3 and the “Affect lability, worst severity Mild, N (%)” value (10 mg oral) was 3 (10.0). The “Affect lability, worst severity Moderate, Events” value (10 mg oral) was 2, the “Affect lability, worst severity Moderate, N (%)” value (10 mg oral) was 2 (6.7) and the “Affect lability, worst severity Severe, Events” value (10 mg oral) was 0. The “Affect lability, worst severity Severe, N (%)” value (10 mg oral) was 0, the “Any Selected TEAE, Events” value (10 mg oral) was 106 and the “Any Selected TEAE, N (%)” value (10 mg oral) was 27 (90.0). The “Any TEAE leading to death, Events” value (10 mg oral) was 0, the “Any TEAE leading to death, N (%)” value (10 mg oral) was 0 and the “Any TEAE leading to study discontinuation, Events” value (10 mg oral) was 0. For the same molecule, the “Any TEAE leading to study discontinuation, N (%)” value (10 mg oral) was 0, the “Any TEAE related to study treatment, Events” value (10 mg oral) was 188 and the “Any TEAE related to study treatment, N (%)” value (10 mg oral) was 29 (96.7). The “Any TEAE, Events” value (10 mg oral) was 203, the “Any TEAE, N (%)” value (10 mg oral) was 29 (96.7) and the “Any TEAE, worst severity Mild, Events” value (10 mg oral) was 12. The “Any TEAE, worst severity Mild, N (%)” value (10 mg oral) was 6 (20.0), the “Any TEAE, worst severity Moderate, Events” value (10 mg oral) was 38 and the “Any TEAE, worst severity Moderate, N (%)” value (10 mg oral) was 13 (43.3). The “Any TEAE, worst severity Severe, Events” value (10 mg oral) was 22, the “Any TEAE, worst severity Severe, N (%)” value (10 mg oral) was 10 (33.3) and the “Any serious TEAE related to study treatment, Events” value (10 mg oral) was 0. The “Any serious TEAE related to study treatment, N (%)” value (10 mg oral) was 0, the “Any serious TEAE, Events” value (10 mg oral) was 0 and the “Any serious TEAE, N (%)” value (10 mg oral) was 0. For the same molecule, the “Any severe TEAE, Events” value (10 mg oral) was 22, the “Any severe TEAE, N (%)” value (10 mg oral) was 10 (33.3) and the “Change in sustained attention, Events” value (10 mg oral) was 2. For the same molecule, the “Change in sustained attention, N (%)” value (10 mg oral) was 2 (6.7), the “Depressed mood, Events” value (10 mg oral) was 1 and the “Depressed mood, N (%)” value (10 mg oral) was 1 (3.3). For the same molecule, the “Dissociative identity disorder, Events” value (10 mg oral) was 2, the “Dissociative identity disorder, N (%)” value (10 mg oral) was 1 (3.3) and the “Emotional disorder, Events” value (10 mg oral) was 2. For the same molecule, the “Emotional disorder, N (%)” value (10 mg oral) was 2 (6.7), the “Emotional disorder, worst severity Mild, Events” value (10 mg oral) was 1 and the “Emotional disorder, worst severity Mild, N (%)” value (10 mg oral) was 1 (3.3). The “Emotional disorder, worst severity Moderate, Events” value (10 mg oral) was 1, the “Emotional disorder, worst severity Moderate, N (%)” value (10 mg oral) was 1 (3.3) and the “Emotional disorder, worst severity Severe, Events” value (10 mg oral) was 0. The “Emotional disorder, worst severity Severe, N (%)” value (10 mg oral) was 0, the “Euphoric mood, Events” value (10 mg oral) was 7 and the “Euphoric mood, N (%)” value (10 mg oral) was 7 (23.3). For the same molecule, the “Euphoric mood, worst severity Mild, Events” value (10 mg oral) was 0, the “Euphoric mood, worst severity Mild, N (%)” value (10 mg oral) was 0 and the “Euphoric mood, worst severity Moderate, Events” value (10 mg oral) was 6. For the same molecule, the “Euphoric mood, worst severity Moderate, N (%)” value (10 mg oral) was 6 (20.0), the “Euphoric mood, worst severity Severe, Events” value (10 mg oral) was 1 and the “Euphoric mood, worst severity Severe, N (%)” value (10 mg oral) was 1 (3.3). The “Fatigue, Events” value (10 mg oral) was 10, the “Fatigue, N (%)” value (10 mg oral) was 9 (30.0) and the “Fatigue, worst severity Mild, Events” value (10 mg oral) was 6. The “Fatigue, worst severity Mild, N (%)” value (10 mg oral) was 6 (20.0), the “Fatigue, worst severity Moderate, Events” value (10 mg oral) was 3 and the “Fatigue, worst severity Moderate, N (%)” value (10 mg oral) was 2 (6.7). For the same molecule, the “Fatigue, worst severity Severe, Events” value (10 mg oral) was 1, the “Fatigue, worst severity Severe, N (%)” value (10 mg oral) was 1 (3.3) and the “Feeling abnormal, Events” value (10 mg oral) was 4. The “Feeling abnormal, N (%)” value (10 mg oral) was 4 (13.3), the “Feeling abnormal, worst severity Mild, Events” value (10 mg oral) was 3 and the “Feeling abnormal, worst severity Mild, N (%)” value (10 mg oral) was 3 (10.0). For the same molecule, the “Feeling abnormal, worst severity Moderate, Events” value (10 mg oral) was 1, the “Feeling abnormal, worst severity Moderate, N (%)” value (10 mg oral) was 1 (3.3) and the “Feeling abnormal, worst severity Severe, Events” value (10 mg oral) was 0. The “Feeling abnormal, worst severity Severe, N (%)” value (10 mg oral) was 0, the “Feeling of relaxation, Events” value (10 mg oral) was 5 and the “Feeling of relaxation, N (%)” value (10 mg oral) was 3 (10.0). The “Gastrointestinal disorders, Events” value (10 mg oral) was 4, the “Gastrointestinal disorders, N (%)” value (10 mg oral) was 4 (13.3) and the “Gastrointestinal disorders, worst severity Mild, Events” value (10 mg oral) was 3. For the same molecule, the “Gastrointestinal disorders, worst severity Mild, N (%)” value (10 mg oral) was 3 (10.0), the “Gastrointestinal disorders, worst severity Moderate, Events” value (10 mg oral) was 1 and the “Gastrointestinal disorders, worst severity Moderate, N (%)” value (10 mg oral) was 1 (3.3). The “Gastrointestinal disorders, worst severity Severe, Events” value (10 mg oral) was 0, the “Gastrointestinal disorders, worst severity Severe, N (%)” value (10 mg oral) was 0 and the “General disorders and administration site conditions, Events” value (10 mg oral) was 27. The “General disorders and administration site conditions, N (%)” value (10 mg oral) was 17 (56.7), the “General disorders and administration site conditions, worst severity Mild, Events” value (10 mg oral) was 17 and the “General disorders and administration site conditions, worst severity Mild, N (%)” value (10 mg oral) was 13 (43.3). For the same molecule, the “General disorders and administration site conditions, worst severity Moderate, Events” value (10 mg oral) was 6, the “General disorders and administration site conditions, worst severity Moderate, N (%)” value (10 mg oral) was 3 (10.0) and the “General disorders and administration site conditions, worst severity Severe, Events” value (10 mg oral) was 1. The “General disorders and administration site conditions, worst severity Severe, N (%)” value (10 mg oral) was 1 (3.3), the “Hallucination, Events” value (10 mg oral) was 3 and the “Hallucination, N (%)” value (10 mg oral) was 3 (10.0). The “Hallucination, auditory, Events” value (10 mg oral) was 4, the “Hallucination, auditory, N (%)” value (10 mg oral) was 4 (13.3) and the “Hallucination, auditory, worst severity Mild, Events” value (10 mg oral) was 1. The “Hallucination, auditory, worst severity Mild, N (%)” value (10 mg oral) was 1 (3.3), the “Hallucination, auditory, worst severity Moderate, Events” value (10 mg oral) was 1 and the “Hallucination, auditory, worst severity Moderate, N (%)” value (10 mg oral) was 1 (3.3). The “Hallucination, auditory, worst severity Severe, Events” value (10 mg oral) was 2, the “Hallucination, auditory, worst severity Severe, N (%)” value (10 mg oral) was 2 (6.7) and the “Hallucination, gustatory, Events” value (10 mg oral) was 1. For the same molecule, the “Hallucination, gustatory, N (%)” value (10 mg oral) was 1 (3.3), the “Hallucination, olfactory, Events” value (10 mg oral) was 1 and the “Hallucination, olfactory, N (%)” value (10 mg oral) was 1 (3.3). The “Hallucination, tactile, Events” value (10 mg oral) was 2, the “Hallucination, tactile, N (%)” value (10 mg oral) was 2 (6.7) and the “Hallucination, visual, Events” value (10 mg oral) was 20. The “Hallucination, visual, N (%)” value (10 mg oral) was 18 (60.0), the “Hallucination, visual, worst severity Mild, Events” value (10 mg oral) was 3 and the “Hallucination, visual, worst severity Mild, N (%)” value (10 mg oral) was 3 (10.0). The “Hallucination, visual, worst severity Moderate, Events” value (10 mg oral) was 8, the “Hallucination, visual, worst severity Moderate, N (%)” value (10 mg oral) was 8 (26.7) and the “Hallucination, visual, worst severity Severe, Events” value (10 mg oral) was 7. For the same molecule, the “Hallucination, visual, worst severity Severe, N (%)” value (10 mg oral) was 7 (23.3), the “Hallucination, worst severity Mild, Events” value (10 mg oral) was 0 and the “Hallucination, worst severity Mild, N (%)” value (10 mg oral) was 0. For the same molecule, the “Hallucination, worst severity Moderate, Events” value (10 mg oral) was 3, the “Hallucination, worst severity Moderate, N (%)” value (10 mg oral) was 3 (10.0) and the “Hallucination, worst severity Severe, Events” value (10 mg oral) was 0. For the same molecule, the “Hallucination, worst severity Severe, N (%)” value (10 mg oral) was 0, the “Headache, Events” value (10 mg oral) was 12 and the “Headache, N (%)” value (10 mg oral) was 9 (30.0). For the same molecule, the “Headache, worst severity Mild, Events” value (10 mg oral) was 12, the “Headache, worst severity Mild, N (%)” value (10 mg oral) was 9 (30.0) and the “Headache, worst severity Moderate, Events” value (10 mg oral) was 0. For the same molecule, the “Headache, worst severity Moderate, N (%)” value (10 mg oral) was 0, the “Headache, worst severity Severe, Events” value (10 mg oral) was 0 and the “Headache, worst severity Severe, N (%)” value (10 mg oral) was 0. The “Hypoaesthesia, Events” value (10 mg oral) was 2, the “Hypoaesthesia, N (%)” value (10 mg oral) was 2 (6.7) and the “Hypoaesthesia, worst severity Mild, Events” value (10 mg oral) was 2. The “Hypoaesthesia, worst severity Mild, N (%)” value (10 mg oral) was 2 (6.7) and the “Hypoaesthesia, worst severity Moderate, Events” value (10 mg oral) was 0.
